The target of one experiment is T1, TYK2-JH2 (Homo sapiens, UniProt P29597).
T1 construct: TYK JH2 enzyme mix (ChemPartnec CP20210818A-BV); purchased ChemPartner CP20210818A-BV
Description: TYK2-JH2 HTRF binding assay (ligand efficiency). The conditions noted are these: calculated from IC50 of the TYK-JH2 binding assay (Equation 1). As to the method: The following example describes the TYK2-JH2 HTRF binding assay used to determine the ligand efficiency of the TYK2 inhibitors.
To calculate ligand efficiency, Equation 1 is applied:
[formula] in which IC50 comes from the binding assay used to determine compound potency.
TYK JH2 enzyme mix (ChemPartnec CP20210818A-BV), tracer (ChemPartnec CP-0029472-051) and mAb Anti-6HIS Tb cryptate Gold (Cisbio: Cat No. 61H12TLA) mix were prepared in assay buffer (10 mM MgCl2, 20 mM HEPES pH 7.5, 0.01% Triton X-100, 1 mM DTT). Compounds diluted in DMSO (Final Concentrations 0.1 to 0.000005 [μM]) and enzyme mix (0.5 nM Final Concentration) were added to 384 well plates, briefly centrifuged and incubated at room temperature for 10 minutes. After incubation, tracer mix (Tracer-35 nM final concentration); (Mab Anti-6HIS Tb cryptate Gold-0.5× final)) was added, briefly centrifuged then incubate at room temperature 60 minutes. After incubation, plates were read by Envision TR-FRET (Ex340/Em495/520) protocol (PerkinElmer-Envision 2104 multilabel plate reader).

Another experiment deals with IL-12/pSTAT4. In words: IL-12 induced pSTAT4 assay in NK-92 cells. Conditions: Homo sapiens, NK92, IL-12 stimulation, read-out: Cellular potency (IL-12/pSTAT4). The class given is cell-based. The method, then:
The following example describes the IL-12 induced pSTAT4 assay used to determine the cellular potency (IL-12/pSTAT4) of the TYK2 inhibitors.
NK-92 cells (human natural killer lymphoma cell line) were cultured in MEM α, nucleosides (Life Technologies, 22571020) 12.5% heat inactivated FBS (Dominique Dutscher, S1810), 12.5% heat inactivated Horse serum (Life Technologies, 26050088) and 1% Penicillin-Streptomycin (Life Technologies, 15140122), 5 ng/mL human IL-2 (R&D systems, 202-II/CF), 0.2 mM inositol (Sigma, PHR1351 lot LRAC4118), 0.1 mM β-mercaptoethanol (Life Technologies, 31350010), and 0.02 mM folic acid (Sigma, F8758).
NK-92 cells were starved overnight in starvation medium (Opti-MEM (ThermoFisher, 11058-021), 10% charcoal stripped FBS (ThermoFisher 12676-029), and 1% Penicillin (100U/ml)-Streptomycin (100 μg/ml) (ThermoFisher, ref 15140122)), then plated in a 96-well tissue culture plate (20K cells/well) prior to pre-incubation with test compounds (Final Concentration [nM] 1000 to 0.05) for 30 minutes at 37° C. Cells were stimulated with IL-12 (Final Concentration l0 ng/ml) for 30 minutes at 37° C., and terminated by addition of lysis buffer (MSD K150PAD-2). pSTAT4 (Tyr693) was detected using the Mesa Scale Discovery platform (MSD K150PAD-2), according to manufacturer's instruction. Briefly, cell lysates were added to pre-blocked plates and incubated for 1 hour at room temperature. Plates were washed and incubated with detection antibody for 1 hour at room temperature. Plates were washed and Read Buffer was added prior to measurement on the MSD (1300 MSD Quickplex SQ 120).

T1 sequence (P29597 589-875 limits assumed): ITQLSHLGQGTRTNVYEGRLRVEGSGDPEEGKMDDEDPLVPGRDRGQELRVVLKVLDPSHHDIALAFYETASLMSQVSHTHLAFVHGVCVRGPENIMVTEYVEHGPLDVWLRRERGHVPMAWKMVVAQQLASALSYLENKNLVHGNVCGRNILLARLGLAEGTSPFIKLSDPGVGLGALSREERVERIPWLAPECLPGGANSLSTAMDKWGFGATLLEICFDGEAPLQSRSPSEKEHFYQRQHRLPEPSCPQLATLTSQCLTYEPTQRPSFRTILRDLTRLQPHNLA

For the compound `C[C@@H](c1ccc(Nc2cc(Nc3ncccc3S(C)(=O)=O)ncn2)nc1)N1C[C@H]2COC[C@H]2C1` [Compound 25, N^4-(3-(methylsulfonyl)105yridine-2-yl)-N^6-(5-(1-((3aR,6aS)-tetrahydro-1H-furo[3,4-c]pyrrol-5 (3H)-yl)ethyl)105yridine-2-yl)pyrimidine-4,6-diamine], at TYK2-JH2, the “Ligand Efficiency” value is on record as “††† (†††: >0.39)”. In the experiment on IL-12/pSTAT4, the IC50 is less than 100 nM.
For `C[C@@H](c1ccc(Nc2cc(Nc3ncccc3S(C)(=O)=O)ncn2)nc1)N1CCCC12CCOCC2` [Compound 29, (S)—N^4-(5-(1-(8-oxa-1-azaspiro[4.5]decan-1-yl)ethyl)111yridine-2-yl)-N^6-(3-(methylsulfonyl)111yridine-2-yl)pyrimidine-4,6-diamine] the same measures were “†† (††: 0.37-0.39)” and less than 100 nM.
For `C[C@H](c1ccc(Nc2cc(Nc3ncccc3S(C)(=O)=O)ncn2)nc1)N1CCC2(CCOCC2)C1` [Compound 30, I-N^4-(5-(1-(8-oxa-2-azaspiro[4.5]decan-2-yl)ethyl)112yridine-2-yl)-N^6-(3-(methylsulfonyl)112yridine-2-yl)pyrimidine-4,6-diamine] the same measures were “†† (††: 0.37-0.39)” and less than 100 nM.
On to `C[C@@H](c1ccc(Nc2cc(Nc3ncccc3S(C)(=O)=O)ncn2)nc1)N1CC2(CCOCC2)C1` [Compound 31, I-N^4-(5-(1-(7-oxa-2-azaspiro[3.5]nonan-2-yl)ethyl)pyridine-2-yl)-N^6-(3-(methylsulfonyl)114yridine-2-yl)pyrimidine-4,6-diamine], for which, on TYK2-JH2, the “Ligand Efficiency” value was “†† (††: 0.37-0.39)”. The IC50 in the experiment with IL-12/pSTAT4 was less than 100 nM.
For `C[C@@H](c1ccc(Nc2cc(Nc3ncccc3S(C)(=O)=O)ncn2)nc1)N1CC2(CCOC2)C1` [Compound 32, (S)—N^4-(5-(1-(6-oxa-2-azaspiro[3.4]octan-2-yl)ethyl)114yridine-2-yl)-N^6-(3-(methylsulfonyl)114yridine-2-yl)pyrimidine-4,6-diamine] the same measures were “††† (†††: >0.39)” and less than 100 nM.
On to `CC(C)(c1ccc(Nc2cc(Nc3ncccc3S(C)(=O)=O)ncn2)nc1)N1CC2(CCOCC2)C1` [Compound 33, N^4-(5-(2-(7-oxa-2-azaspiro[3.5]nonan-2-yl)propan-2-yl)118yridine-2-yl)-N^6-(3-(methylsulfonyl)118yridine-2-yl)pyrimidine-4,6-diamine], for which the “Ligand Efficiency” value on TYK2-JH2 is on record as “†† (††: 0.37-0.39)”. In the experiment on IL-12/pSTAT4, the IC50 is less than 100 nM.
For `CC(c1ccc(Nc2cc(Nc3ncccc3S(C)(=O)=O)ncn2)nc1)N1CC2(CC(C(F)F)C2)C1` (stereo not shown) [Compound 34, N^4-(5-(1-(6-(difluoromethyl)-2-azaspiro[3.3]heptan-2-yl)ethyl) 120yridine-2-yl)-N^6-(3-(methylsulfonyl)120yridine-2-yl)pyrimidine-4,6-diamine], in that order: “†† (††: 0.37-0.39)” and less than 100 nM.
For `CC1(CNc2ccc(Nc3cc(Nc4ncccc4S(C)(=O)=O)ncn3)nc2)COC1` [Compound 36, N^4-(5-(((3-methyloxetan-3-yl)methyl)amino)123yridine-2-yl)-N^6-(3-(methylsulfonyl)123yridine-2-yl)pyrimidine-4,6-diamine], in that order: “††† (†††: >0.39)” and less than 100 nM.
For `CS(=O)(=O)c1cccnc1Nc1cc(Nc2ccc(NC3CC(F)(F)C3)cn2)ncn1` [Compound 37, N^4-(5-(3,3-difluorocyclobutylamino)124yridine-2-yl)-N^6-(3-(methylsulfonyl)124yridine-2-yl)pyrimidine-4,6-diamine] the same measures were “††† (†††: >0.39)” and less than 100 nM.
As to `CS(=O)(=O)c1cccnc1Nc1cc(Nc2ccc(C(=O)NC3CC(F)(F)C3)cn2)ncn1` [Compound 38, N-(3,3-difluorocyclobutyl)-6-(6-(3-(methylsulfonyl)pyridine-2-ylamino)pyrimidin-4-ylamino)nicotinamide], at TYK2-JH2, the “Ligand Efficiency” value was “††† (†††: >0.39)”. Moreover, the IC50 in the experiment on IL-12/pSTAT4 is less than 100 nM.
For `C[C@H](NC1COC1)c1ccc(Nc2cc(Nc3ccccc3S(C)(=O)=O)ncn2)nc1` [Compound 40, I-N^4-(2-(methylsulfonyl)phenyl)-N^6-(5-(1-(oxetan-3-ylamino)ethyl)128yridine-2-yl)pyrimidine-4,6-diamine] the same measures were “††† (†††: >0.39)” and 100 to 1000 nM.
For `CS(=O)(=O)c1ccccc1Nc1cc(Nc2ccc(C3(NC4COC4)CC3)cn2)ncn1` [Compound 41, N^4-(2-(methylsulfonyl)phenyl)-N^6-(5-(1-(oxetan-3-ylamino)cyclopropyl)130yridine-2-yl)pyrimidine-4,6-diamine], the “Ligand Efficiency” value at TYK2-JH2 is on record as “†† (††: 0.37-0.39)”. Also, in the experiment on IL-12/pSTAT4, the IC50 is 100 to 1000 nM.
For `CS(=O)(=O)c1ccccc1Nc1cc(Nc2ccc(N3CCOCC3)cn2)ncn1` [Compound 42, N^4-(2-(methylsulfonyl)phenyl)-N^6-(5-morpholinopyridin-2-yl) pyrimidine-4,6-diamine] the same measures were “††† (†††: >0.39)” and 100 to 1000 nM.
For `CS(=O)(=O)c1ccccc1Nc1cc(Nc2ccc(C(=O)NC3CCOC3)cn2)ncn1` (stereo not shown) [Compound 43, 6-(6-(2-(methylsulfonyl)phenylamino)pyrimidin-4-ylamino)-N-(tetrahydrofuran-3-yl)nicotinamide], in that order: “†† (††: 0.37-0.39)” and greater than 1000 nM.
For `Cc1nccc(Nc2cc(Nc3ccccc3C(N)=O)ncn2)n1` [Compound 48, 2-((6-((2-methylpyrimidin-4-yl)amino)pyrimidin-4-yl)amino) benzamide] the same measures were “††† (†††: >0.39)” and 100 to 1000 nM.
Turning to `Cc1cccc(Nc2cc(Nc3cccnc3C(N)=O)ncn2)n1` [Compound 50, 3-((6-((6-methylpyridin-2-yl)amino)pyrimidin-4-yl)amino) picolinamide], the “Ligand Efficiency” value on TYK2-JH2 is reported as “††† (†††: >0.39)”. In the experiment with IL-12/pSTAT4, the IC50 is 100 to 1000 nM.
For `Cc1cccc(Nc2cc(Nc3ccncc3C(N)=O)ncn2)n1` [Compound 51, 4-((6-((6-methylpyridin-2-yl)amino)pyrimidin-4-yl)amino) nicotinamide] the same measures were “††† (†††: >0.39)” and greater than 1000 nM.
For `Cc1cccc(Nc2cc(Nc3ncccc3C(N)=O)ncn2)n1` [Compound 52, 2-((6-((6-methylpyridin-2-yl)amino)pyrimidin-4-yl)amino) nicotinamide] the same measures were “††† (†††: >0.39)” and 100 to 1000 nM.
Consider `C[C@H]1COCCN1c1ccc(Nc2cc(Nc3ccccc3S(C)(=O)=O)ncn2)nc1` [Compound 54, (S)—N^4-(5-(3-methylmorpholino)144yridine-2-yl)-N^6-(2-(methylsulfonyl)phenyl)pyrimidine-4,6-diamine], for which the “Ligand Efficiency” value on TYK2-JH2 is reported as “† (†: <0.37)”. Besides, the IC50 with IL-12/pSTAT4 was greater than 1000 nM.
For `Cc1ccnc(Nc2cc(Nc3ccccc3C(N)=O)ncn2)n1` [Compound 58, 2-(6-(4-methylpyrimidin-2-ylamino)pyrimidin-4-ylamino)benzamide], in that order: “††† (†††: >0.39)” and greater than 1000 nM.
For `Cc1cccc(Nc2cc(Nc3cccnc3S(C)(=O)=O)ncn2)n1` [Compound 59, N^4-(6-methylpyridin-2-yl)-N^6-(2-(methylsulfonyl)149yridine-3-yl) pyrimidine-4,6-diamine], in that order: “††† (†††: >0.39)” and greater than 1000 nM.
For `Cc1cccc(Nc2cc(Nc3ccncc3S(C)(=O)=O)ncn2)n1` [Compound 60, N^4-(6-methylpyridin-2-yl)-N^6-(3-(methylsulfonyl)151yridine-4-yl) pyrimidine-4,6-diamine] the same measures were “††† (†††: >0.39)” and greater than 1000 nM.
Take `Cc1cccc(Nc2cc(Nc3cnccc3C(N)=O)ncn2)n1` [Compound 61, 3-((6-((6-methylpyridin-2-yl)amino)pyrimidin-4-yl)amino) isonicotinamide]: the “Ligand Efficiency” value at TYK2-JH2 is “††† (†††: >0.39)”. Further, the IC50 with IL-12/pSTAT4 lay within 100 to 1000 nM.

The values above are taken from patent US12358904B2, “Inhibitors of TYK2” (Atomwise Inc., priority 2023, dated 2025).
